Measured values taken from ChEMBL document CHEMBL5291721, “A preclinical secondary pharmacology resource illuminates target-adverse drug reaction associations of marketed drugs” (Nat Commun, 2023).

What was measured:
[1] = biological target: T1, Cholecystokinin receptor type A (Homo sapiens, UniProt P32238)
T1 sequence (P32238 whole entry): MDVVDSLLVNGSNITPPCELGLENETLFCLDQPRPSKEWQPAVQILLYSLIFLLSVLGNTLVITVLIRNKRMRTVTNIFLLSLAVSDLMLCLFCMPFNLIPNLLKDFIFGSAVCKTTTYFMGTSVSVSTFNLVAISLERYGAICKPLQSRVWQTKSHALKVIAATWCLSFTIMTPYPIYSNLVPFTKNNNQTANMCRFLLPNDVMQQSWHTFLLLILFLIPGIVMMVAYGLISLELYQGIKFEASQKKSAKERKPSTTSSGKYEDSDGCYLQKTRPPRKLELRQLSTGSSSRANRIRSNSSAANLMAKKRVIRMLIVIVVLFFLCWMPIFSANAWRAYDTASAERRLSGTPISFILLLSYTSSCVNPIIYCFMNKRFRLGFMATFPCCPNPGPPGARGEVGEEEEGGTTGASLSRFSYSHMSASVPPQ

[2] = biological target: T2, Cannabinoid receptor 1 (Homo sapiens, UniProt P21554); assay type: functional, cell-based
[3] = biological target: T2, Cannabinoid receptor 1; assay type: functional, cell-based; remark: listed apart in the source
[4] = biological target: T2, Cannabinoid receptor 1
[5] = biological target: Growth hormone secretagogue receptor type 1 (Homo sapiens, UniProt Q92847)
[6] = biological target: Glutamate receptor ionotropic, NMDA 1 (Rattus norvegicus, UniProt P35439)
[7] = biological target: Histamine H2 receptor (Homo sapiens, UniProt P25021); assay type: functional, cell-based
[8] = biological target: T3, 5-hydroxytryptamine receptor 3A (Homo sapiens, UniProt P46098); assay type: functional
T3 sequence (P46098 whole entry): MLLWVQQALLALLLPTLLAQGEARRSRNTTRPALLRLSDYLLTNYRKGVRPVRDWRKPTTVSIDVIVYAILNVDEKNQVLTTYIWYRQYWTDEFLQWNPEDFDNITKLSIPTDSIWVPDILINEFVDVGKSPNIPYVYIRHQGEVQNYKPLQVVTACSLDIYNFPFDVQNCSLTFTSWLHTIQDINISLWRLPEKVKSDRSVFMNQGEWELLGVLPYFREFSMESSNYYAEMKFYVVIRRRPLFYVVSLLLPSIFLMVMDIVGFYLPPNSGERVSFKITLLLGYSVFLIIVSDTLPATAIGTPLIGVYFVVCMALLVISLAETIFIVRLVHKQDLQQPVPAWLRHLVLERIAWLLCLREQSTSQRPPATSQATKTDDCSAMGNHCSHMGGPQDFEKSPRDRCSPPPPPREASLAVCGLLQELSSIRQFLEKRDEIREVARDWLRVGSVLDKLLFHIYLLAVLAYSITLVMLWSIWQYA

[9] = biological target: Melanocortin receptor 4 (Homo sapiens, UniProt P32245)
[10] = biological target: 3',5'-cyclic-AMP phosphodiesterase 4D (Homo sapiens, UniProt Q08499); assay type: functional
[11] = biological target: Histamine H3 receptor (Homo sapiens, UniProt Q9Y5N1)
[12] = biological target: T4, Progesterone receptor (Homo sapiens, UniProt P06401); assay type: functional
T4 sequence (P06401 whole entry): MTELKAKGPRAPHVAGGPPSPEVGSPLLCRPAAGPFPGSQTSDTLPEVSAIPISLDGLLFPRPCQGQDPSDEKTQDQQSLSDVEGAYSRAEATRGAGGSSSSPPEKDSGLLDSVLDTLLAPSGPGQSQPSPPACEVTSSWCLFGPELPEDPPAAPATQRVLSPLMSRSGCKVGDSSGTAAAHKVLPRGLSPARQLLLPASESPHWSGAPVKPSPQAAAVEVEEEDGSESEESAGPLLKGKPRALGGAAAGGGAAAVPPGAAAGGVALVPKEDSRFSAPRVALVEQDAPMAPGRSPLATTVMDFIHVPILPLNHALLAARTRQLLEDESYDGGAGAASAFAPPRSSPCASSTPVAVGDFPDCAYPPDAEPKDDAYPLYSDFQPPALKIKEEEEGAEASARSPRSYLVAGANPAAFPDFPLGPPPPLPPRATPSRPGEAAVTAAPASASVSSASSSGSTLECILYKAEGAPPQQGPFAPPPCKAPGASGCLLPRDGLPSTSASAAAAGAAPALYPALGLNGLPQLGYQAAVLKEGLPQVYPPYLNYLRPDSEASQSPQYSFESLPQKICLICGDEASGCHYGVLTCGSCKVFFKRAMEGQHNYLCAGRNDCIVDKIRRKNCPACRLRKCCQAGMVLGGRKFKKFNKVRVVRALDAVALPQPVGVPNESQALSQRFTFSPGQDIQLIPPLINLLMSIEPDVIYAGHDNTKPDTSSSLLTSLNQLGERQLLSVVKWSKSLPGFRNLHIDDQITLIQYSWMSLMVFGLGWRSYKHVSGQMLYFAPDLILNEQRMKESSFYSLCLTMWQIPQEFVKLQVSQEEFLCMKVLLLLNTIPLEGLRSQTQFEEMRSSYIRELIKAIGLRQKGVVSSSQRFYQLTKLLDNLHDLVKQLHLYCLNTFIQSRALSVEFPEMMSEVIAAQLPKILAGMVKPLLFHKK

[13] = biological target: T4, Progesterone receptor; assay type: functional; remark: listed apart in the source

Measured: AC50
Note: assay procedure not described here.

Histamine H3 receptor, sequence (Q9Y5N1 whole entry): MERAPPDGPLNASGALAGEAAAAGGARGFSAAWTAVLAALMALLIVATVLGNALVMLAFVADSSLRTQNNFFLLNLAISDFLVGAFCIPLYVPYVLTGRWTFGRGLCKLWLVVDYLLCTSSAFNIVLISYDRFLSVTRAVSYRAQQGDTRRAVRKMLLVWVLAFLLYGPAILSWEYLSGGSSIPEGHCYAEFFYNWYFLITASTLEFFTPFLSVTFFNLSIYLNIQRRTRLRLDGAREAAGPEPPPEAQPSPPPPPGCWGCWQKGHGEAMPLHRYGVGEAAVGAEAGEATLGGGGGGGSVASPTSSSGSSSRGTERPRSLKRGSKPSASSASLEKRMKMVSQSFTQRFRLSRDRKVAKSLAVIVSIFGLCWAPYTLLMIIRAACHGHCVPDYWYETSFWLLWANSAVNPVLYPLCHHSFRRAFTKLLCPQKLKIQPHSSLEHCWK
Growth hormone secretagogue receptor type 1, sequence (Q92847 whole entry): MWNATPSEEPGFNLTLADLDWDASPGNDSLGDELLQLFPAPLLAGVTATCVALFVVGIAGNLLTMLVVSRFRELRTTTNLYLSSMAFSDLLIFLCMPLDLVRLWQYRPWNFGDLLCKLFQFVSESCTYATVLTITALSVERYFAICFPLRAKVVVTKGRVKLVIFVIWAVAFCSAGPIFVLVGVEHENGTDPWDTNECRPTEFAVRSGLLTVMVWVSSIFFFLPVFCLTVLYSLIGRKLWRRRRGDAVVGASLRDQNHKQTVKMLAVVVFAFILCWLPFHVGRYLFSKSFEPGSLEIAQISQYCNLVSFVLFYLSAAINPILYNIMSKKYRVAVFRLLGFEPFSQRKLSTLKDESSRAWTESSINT
Melanocortin receptor 4, sequence (P32245 whole entry): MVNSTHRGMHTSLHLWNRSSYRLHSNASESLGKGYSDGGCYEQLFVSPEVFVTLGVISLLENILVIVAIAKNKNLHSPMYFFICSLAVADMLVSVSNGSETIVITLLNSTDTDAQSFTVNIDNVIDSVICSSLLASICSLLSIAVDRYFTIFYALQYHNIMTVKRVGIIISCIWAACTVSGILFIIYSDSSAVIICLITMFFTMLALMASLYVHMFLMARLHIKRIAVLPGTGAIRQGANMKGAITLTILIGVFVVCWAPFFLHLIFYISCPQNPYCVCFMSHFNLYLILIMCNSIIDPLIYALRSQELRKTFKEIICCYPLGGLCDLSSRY
3',5'-cyclic-AMP phosphodiesterase 4D, sequence (Q08499 whole entry): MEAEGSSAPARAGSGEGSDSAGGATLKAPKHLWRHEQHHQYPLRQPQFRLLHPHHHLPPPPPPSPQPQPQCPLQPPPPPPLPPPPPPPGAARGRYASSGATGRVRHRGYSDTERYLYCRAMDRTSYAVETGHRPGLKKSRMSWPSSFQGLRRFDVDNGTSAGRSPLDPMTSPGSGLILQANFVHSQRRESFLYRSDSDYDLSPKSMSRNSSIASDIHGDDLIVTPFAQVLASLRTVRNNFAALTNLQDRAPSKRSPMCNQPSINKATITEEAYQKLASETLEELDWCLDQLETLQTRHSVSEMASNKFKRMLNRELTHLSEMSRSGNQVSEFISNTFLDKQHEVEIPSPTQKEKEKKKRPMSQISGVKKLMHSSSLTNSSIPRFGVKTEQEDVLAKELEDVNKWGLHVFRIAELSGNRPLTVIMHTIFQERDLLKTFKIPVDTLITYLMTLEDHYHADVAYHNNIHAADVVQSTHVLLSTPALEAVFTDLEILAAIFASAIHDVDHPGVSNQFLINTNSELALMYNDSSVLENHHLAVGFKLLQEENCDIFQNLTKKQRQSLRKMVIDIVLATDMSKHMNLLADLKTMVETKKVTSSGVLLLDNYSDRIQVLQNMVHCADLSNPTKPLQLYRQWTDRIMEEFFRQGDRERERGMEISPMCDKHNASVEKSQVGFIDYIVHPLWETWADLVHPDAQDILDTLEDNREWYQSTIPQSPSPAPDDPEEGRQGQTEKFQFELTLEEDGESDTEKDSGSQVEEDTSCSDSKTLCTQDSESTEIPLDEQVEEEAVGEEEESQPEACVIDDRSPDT
Histamine H2 receptor, sequence (P25021 whole entry): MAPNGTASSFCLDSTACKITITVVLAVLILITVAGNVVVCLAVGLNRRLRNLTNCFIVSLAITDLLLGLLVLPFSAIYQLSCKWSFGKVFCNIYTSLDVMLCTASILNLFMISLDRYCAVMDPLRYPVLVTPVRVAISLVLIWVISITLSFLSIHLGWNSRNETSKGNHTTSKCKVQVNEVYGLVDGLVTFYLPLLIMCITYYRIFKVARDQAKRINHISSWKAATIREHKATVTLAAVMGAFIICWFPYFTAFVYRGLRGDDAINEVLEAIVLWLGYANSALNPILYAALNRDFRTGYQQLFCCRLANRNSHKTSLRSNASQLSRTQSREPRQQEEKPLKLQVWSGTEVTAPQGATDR
T2 sequence (P21554 whole entry): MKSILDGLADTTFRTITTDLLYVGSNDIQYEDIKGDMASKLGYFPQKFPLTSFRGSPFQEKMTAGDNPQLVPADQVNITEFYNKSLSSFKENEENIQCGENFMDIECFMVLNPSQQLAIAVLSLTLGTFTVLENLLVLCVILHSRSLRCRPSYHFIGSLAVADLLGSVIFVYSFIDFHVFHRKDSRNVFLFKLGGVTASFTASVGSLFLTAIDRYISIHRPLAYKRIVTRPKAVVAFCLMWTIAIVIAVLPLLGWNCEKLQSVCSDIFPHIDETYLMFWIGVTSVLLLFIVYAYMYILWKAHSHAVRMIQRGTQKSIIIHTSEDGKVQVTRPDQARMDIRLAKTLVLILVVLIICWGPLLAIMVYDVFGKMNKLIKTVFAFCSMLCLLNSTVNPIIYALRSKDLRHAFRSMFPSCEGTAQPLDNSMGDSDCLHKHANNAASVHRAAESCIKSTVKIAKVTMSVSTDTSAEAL

Nc1ccc(S(=O)(=O)Nc2nccs2)cc1 [SULFATHIAZOLE]
> 10 µM: [4] | [6] | [7] | [11]
not listed: [12] | [13]
> 30 µM: all other assays above

CN1C[C@H](C(=O)N[C@]2(C)O[C@@]3(O)[C@@H]4CCCN4C(=O)[C@H](Cc4ccccc4)N3C2=O)C=C2c3cccc4[nH]cc(c34)C[C@H]21 [ERGOTAMINE]
not listed: [4] | [6] | [7] | [9]
> 30 µM: all other assays above

CC(S)C(=O)NCC(=O)O (stereo not drawn) [TIOPRONIN]
not listed: [4] | [6] | [7] | [9]
> 30 µM: all other assays above

CC(C)(C)NCC(O)c1cc(O)cc(O)c1 (stereo not drawn) [TERBUTALINE]
> 30 µM: [1] | [5] | [12] | [13] | [11]

C[C@@H](NCCCc1cccc(C(F)(F)F)c1)c1cccc2ccccc12
10 µM: [5]
not listed: [4] | [9]
> 30 µM: all other assays above

CCN1CCN(Cc2ccc(Nc3ncc(F)c(-c4cc(F)c5nc(C)n(C(C)C)c5c4)n3)nc2)CC1 [ABEMACICLIB]
0.31 µM: [11]
3.2 µM: [10]
not listed: [4] | [6] | [7] | [9]
> 30 µM: all other assays above

C[C@H]1c2cccc(O)c2C(=O)C2=C(O)[C@]3(O)C(=O)C(C(N)=O)=C(O)[C@@H](N(C)C)[C@@H]3[C@@H](O)[C@@H]21 [DOXYCYCLINE]
> 10 µM: [4] | [6] | [7] | [11]
not listed: [12] | [13]
> 30 µM: all other assays above

CCN(CC)CCNC(=O)c1c(C)[nH]c(/C=C2\C(=O)Nc3ccc(F)cc32)c1C [SUNITINIB]
6.7 µM: [1]
1.7 µM: [12]
> 30 µM: [2] | [3] | [6] | [7]
9.8 µM: [10]
0.88 µM: [11]
7.2 µM: [5]

CO[C@H]1/C=C/O[C@@]2(C)Oc3c(C)c(O)c4c(O)c(c(/C=N/N5CCN(C)CC5)c(O)c4c3C2=O)NC(=O)/C(C)=C\C=C\[C@H](C)[C@H](O)[C@@H](C)[C@@H](O)[C@@H](C)[C@H](OC(C)=O)[C@@H]1C [RIFAMPIN]
17.1 µM: [1]
13 µM: [10]
25 µM: [11]
5.2 µM: [8]
not listed: [13]
> 30 µM: all other assays above

C[C@H](CCC(=O)O)[C@H]1CC[C@H]2[C@@H]3[C@@H](O)C[C@@H]4C[C@H](O)CC[C@]4(C)[C@H]3CC[C@]12C [URSODIOL]
> 30 µM: [1] | [2] | [3] | [5] | [8] | [10] | [11]

CN(C)CCC[C@@]1(c2ccc(F)cc2)OCc2cc(C#N)ccc21 [ESCITALOPRAM]
not listed: [4] | [7] | [9]
> 30 µM: all other assays above

O=C1CN(/N=C/c2ccc(-c3ccc([N+](=O)[O-])cc3)o2)C(O)=N1 [DANTROLENE]
> 30 µM: [8] | [10]
not listed: [2] | [3] | [11]
> 10 µM: all other assays above

CN(C)CCc1c[nH]c2ccc(Cn3cncn3)cc12 [RIZATRIPTAN]
> 10 µM: [4] | [11]
not listed: [12] | [13]
> 30 µM: all other assays above

CC(C)Cc1ccc(C(C)C(=O)O)cc1 (stereo not drawn) [IBUPROFEN]
> 10 µM: [4] | [6] | [7] | [11]
not listed: [12] | [13]
> 30 µM: all other assays above

CC(C)c1nc(N(C)S(C)(=O)=O)nc(-c2ccc(F)cc2)c1/C=C/[C@@H](O)C[C@@H](O)CC(=O)O [ROSUVASTATIN]
4.16 µM: [10]
not listed: [4] | [9]
> 30 µM: all other assays above

C=C[C@H]1C[N@@]2CC[C@H]1C[C@@H]2[C@@H](O)c1ccnc2ccc(OC)cc12 [QUINIDINE]
> 10 µM: [4] | [6] | [7] | [11]
not listed: [12] | [13]
> 30 µM: all other assays above

CN(C)CC[C@@H](c1ccc(Cl)cc1)c1ccccn1 [DEXCHLORPHENIRAMINE]
6.3 µM: [11]
> 10 µM: [10]
not listed: [4] | [9]
> 30 µM: all other assays above

CC(N)C12CC3CC(CC(C3)C1)C2 (stereo not drawn) [RIMANTADINE]
> 30 µM: [8] | [10]
not listed: [2] | [3] | [11]
> 10 µM: all other assays above
